Each structure is given as a SMILES string.

One may read the inhibition as the drop in the measured response relative to a control, in per cent. Read a low inhibition as a response near the control. Usually EC50 stands for the concentration that produces a half-maximal response. The term IC50 denotes the concentration that gives 50% inhibition. Low values mean higher potency, high ones lower potency.

Experiment [1] is described as follows: Cytotoxicity against human MCF7/6 cells at 80 uM after 72 hrs by SRB assay. In kind it is functional. The settings on record: MCF7/6, 72 h. Background: Sulforhodamine B stains cellular protein and so reports cell mass.
The target in experiment [2] is T1, Estrogen receptor (Homo sapiens, UniProt P03372).
T1 sequence (P03372 whole entry): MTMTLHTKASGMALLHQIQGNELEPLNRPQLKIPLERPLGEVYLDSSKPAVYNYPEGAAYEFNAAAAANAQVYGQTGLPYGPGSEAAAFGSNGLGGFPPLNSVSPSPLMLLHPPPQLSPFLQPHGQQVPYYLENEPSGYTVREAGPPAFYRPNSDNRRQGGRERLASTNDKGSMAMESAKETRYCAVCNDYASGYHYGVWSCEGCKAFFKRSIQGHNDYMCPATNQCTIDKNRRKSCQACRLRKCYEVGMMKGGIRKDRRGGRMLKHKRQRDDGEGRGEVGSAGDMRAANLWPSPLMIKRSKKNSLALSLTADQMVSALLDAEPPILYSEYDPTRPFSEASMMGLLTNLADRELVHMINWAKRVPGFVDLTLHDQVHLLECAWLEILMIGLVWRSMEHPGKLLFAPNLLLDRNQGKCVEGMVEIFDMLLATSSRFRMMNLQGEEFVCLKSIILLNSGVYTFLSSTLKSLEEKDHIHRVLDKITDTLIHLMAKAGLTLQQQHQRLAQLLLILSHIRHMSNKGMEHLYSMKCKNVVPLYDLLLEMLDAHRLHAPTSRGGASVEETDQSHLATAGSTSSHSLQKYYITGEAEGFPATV
As to the kind of experiment: Estrogenic activity at human estrogen receptor expressing Saccharomyces cerevisiae carrying estrogen responsive sequence containing plasmid assessed as metabolism of chlorophenol res beta-D-galactopyranoside.

Experiment [3] can be described thus: Cytotoxicity against human MCF7/6 cells at 40 uM after 72 hrs by SRB assay. As to conditions: MCF7/6, 72 h. In kind it is functional.
The nature of experiment [4]: Cytotoxicity against human MCF7/6 cells after 72 hrs by SRB assay. In kind it is functional, cell-based. As to conditions: MCF7/6, 72 h.
Experiment [5] addresses T1, Estrogen receptor. As to the kind of experiment: Estrogenic activity at estrogen receptor in human Ishikawa Var-1 cells assessed as stimulation of alkaline phosphatase activity measured by metabolism of p-nitrophenol phosphatase after 72 hrs. Format: cell-based.

For `C=C(C)C(CC=C(C)C)Cc1c(O)cc(OC)c2c1O[C@H](c1ccc(O)cc1O)CC2=O` (stereo not given in full) [KURARINONE], the inhibition at 80 µM in experiment [1] is over 80%. The figures for the EC50 on Estrogen receptor [2] and on Estrogen receptor [5] were 4.6 µM and 1.66 µM, respectively. Further, the inhibition at 40 µM in experiment [3] stood at 60%. Also, the IC50 in experiment [4] stood at 22.2 µM.

Source of the values: ChEMBL document CHEMBL1148943, “Estrogenic and anticarcinogenic properties of kurarinone, a lavandulyl flavanone from the roots of Sophora flavescens” (J Nat Prod, 2004).
